Laboratory results reported in the supplement of paper PMC10307832.

Legend:
Assay in all cases: relative viability (nuclei count vs DMSO), 5 days (fraction); higher = more cells survive
[1] = compound: COc1cc2ncn(-c3cc(OCc4ccccc4C(F)(F)F)c(C(N)=O)s3)c2cc1OC + Nc1nc2[nH]cc(CCc3ccc(C(=O)N[C@@H](CCC(=O)O)C(=O)O)cc3)c2c(=O)[nH]1 [Pemetrexed] (partner 0.2 µM)
Summary of the method: (§1)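 Relative viability divides the nuclei count in treated wells by that in vehicle wells. Lung cancer cell lines were seeded in 1536-well plates, dosed by pin tool the next day, and fixed and stained after 5 days in one step with final 0.05% Triton X-100, 1% formaldehyde and 1 ug/ml Hoechst. Dosing was a single drug or a fixed anchor-drug dose plus five library-drug doses (not always all listed) in √10 steps, and values are medians of duplicate plates imaged at 4×.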

[2] = compound: COc1cc2ncn(-c3cc(OCc4ccccc4C(F)(F)F)c(C(N)=O)s3)c2cc1OC + COc1cccc2cc(-c3nc([C@H]4CC[C@H](C(=O)O)CC4)n4ncnc(N)c34)[nH]c12 [OSI-027] (partner 0.5 µM)
Summary of the method: as §1

[3] = compound: COc1cc2ncn(-c3cc(OCc4ccccc4C(F)(F)F)c(C(N)=O)s3)c2cc1OC + COc1cc2c(Oc3ccc(NC(=O)C4(C(=O)Nc5ccc(F)cc5)CC4)cc3F)ccnc2cc1OCCCN1CCOCC1 [Foretinib] (partner 0.25 µM)
Summary of the method: as §1

[4] = compound: COc1cc2ncn(-c3cc(OCc4ccccc4C(F)(F)F)c(C(N)=O)s3)c2cc1OC + NC(=O)Nc1cc(-c2cccc(F)c2)sc1C(=O)N[C@H]1CCCNC1 [AZD7762] (partner 0.2 µM)
Summary of the method: as §1

Cell Line | relative viability ([1]; first compound 0.05 µM) | relative viability ([1]; first compound 0.1581 µM) | relative viability ([1]; first compound 0.5 µM) | relative viability ([1]; first compound 1.581 µM) | relative viability ([1]; first compound 5 µM) | relative viability ([2]; first compound 0.05 µM) | relative viability ([2]; first compound 0.1581 µM) | relative viability ([2]; first compound 0.5 µM) | relative viability ([2]; first compound 1.581 µM) | relative viability ([2]; first compound 5 µM) | relative viability ([3]; first compound 0.05 µM) | relative viability ([3]; first compound 0.1581 µM) | relative viability ([3]; first compound 0.5 µM) | relative viability ([3]; first compound 1.581 µM) | relative viability ([3]; first compound 5 µM) | relative viability ([4]; first compound 0.05 µM) | relative viability ([4]; first compound 0.1581 µM) | relative viability ([4]; first compound 0.5 µM) | relative viability ([4]; first compound 1.581 µM) | relative viability ([4]; first compound 5 µM)
COR-L 105 | 0.924 | 1.24 | 0.909 | 0.409 | 0.418 | 0.591 | 0.823 | 0.526 | 0.298 | 0.211 | 1.2 | 1.2 | 1.17 | 0.391 | 0.302 | – | – | – | – | –
LK-2 | 0.386 | 0.268 | 0.168 | 0.115 | 0.0951 | 0.197 | 0.221 | 0.17 | 0.173 | 0.138 | 1.27 | 0.987 | 0.266 | 0.163 | 0.135 | 0.386 | 0.366 | 0.202 | 0.115 | 0.126
NCI-H838 | 0.216 | 0.278 | 0.221 | 0.143 | 0.114 | 0.385 | 0.424 | 0.292 | 0.231 | 0.123 | 1.17 | 1.09 | 0.832 | 0.455 | 0.139 | 0.968 | 0.916 | 0.73 | 0.609 | 0.581
SK-LU-1 | 0.7 | 0.886 | 0.351 | 0.298 | 0.272 | 0.33 | 0.332 | 0.168 | 0.196 | 0.188 | 0.811 | 0.765 | 0.32 | 0.219 | 0.206 | – | – | – | – | –
NCI-H2023 | 0.202 | 0.2 | 0.177 | 0.107 | 0.114 | 0.323 | 0.391 | 0.185 | 0.0955 | 0.0617 | 0.765 | 0.799 | 0.725 | 0.416 | 0.0871 | – | – | – | – | –
NCI-H322M | 0.682 | 0.707 | 0.524 | 0.429 | 0.352 | 0.512 | 0.541 | 0.462 | 0.319 | 0.239 | 0.956 | 1.16 | 0.857 | 0.499 | 0.406 | 0.593 | 0.722 | 0.498 | 0.451 | 0.413
NCI-H1666 | 0.827 | 0.83 | 0.651 | 0.52 | 0.447 | 0.895 | 0.778 | 0.543 | 0.362 | 0.366 | 0.927 | 0.832 | 0.507 | 0.393 | 0.354 | 0.84 | 0.881 | 0.8 | 0.555 | 0.483
NCI-H1648 | 0.855 | 0.805 | 0.513 | 0.243 | 0.219 | 0.255 | 0.219 | 0.244 | 0.238 | 0.198 | – | – | – | – | – | 0.699 | 0.721 | 0.637 | 0.25 | 0.214
NCI-H2087 | 0.617 | 0.684 | 0.414 | 0.11 | 0.106 | 0.747 | 0.471 | 0.181 | 0.101 | 0.0877 | 1.16 | 1.21 | 0.261 | 0.117 | 0.128 | 1.37 | 1.22 | 0.575 | 0.12 | 0.109
LU99A | 0.204 | 0.169 | 0.204 | 0.154 | 0.146 | 0.304 | 0.32 | 0.231 | 0.176 | 0.178 | 0.564 | 0.87 | 0.572 | 0.302 | 0.216 | 0.306 | 0.385 | 0.226 | 0.132 | 0.0907
HCC-366 | 0.166 | 0.155 | 0.0748 | 0.0321 | 0.0197 | 1.1 | 0.814 | 0.182 | 0.0338 | 0.0229 | 0.962 | 0.938 | 0.282 | 0.0269 | 0.0243 | 0.51 | 0.431 | 0.385 | 0.0175 | 0.0105
EKVX | 0.395 | 0.302 | 0.334 | 0.244 | 0.242 | 0.653 | 0.69 | 0.491 | – | 0.449 | 0.779 | 0.516 | 0.603 | – | 0.46 | 0.841 | 0.48 | 0.655 | 0.416 | 0.33
NCI-H522 | 0.965 | 0.842 | 0.742 | 0.812 | 0.377 | 0.692 | 0.757 | 0.621 | 0.444 | 0.415 | – | – | – | – | – | 1.01 | 0.769 | 0.766 | 0.461 | 0.417
NCI-H1755 | 0.43 | 0.434 | 0.426 | 0.299 | 0.286 | 0.785 | 0.688 | 0.467 | 0.314 | 0.266 | 0.583 | 0.896 | 0.635 | 0.362 | 0.315 | 0.431 | 0.525 | 0.397 | 0.373 | 0.259
NCI-H650 | 1.01 | 0.923 | 0.768 | 0.261 | 0.458 | 0.503 | 0.63 | 0.383 | 0.213 | 0.189 | 0.995 | 1.08 | 0.779 | 0.348 | 0.637 | 1.21 | 1.01 | 0.92 | 0.561 | 0.581
LC-2-ad | 0.244 | 0.281 | 0.248 | 0.213 | 0.171 | 0.813 | 0.754 | 0.393 | 0.289 | 0.254 | 0.916 | 0.946 | 0.506 | 0.286 | 0.303 | 0.769 | 0.896 | 0.576 | 0.14 | 0.129
NCI-H1793 | 0.788 | 1.01 | 0.276 | 0.164 | 0.107 | 0.3 | 0.299 | 0.161 | 0.144 | 0.116 | 0.925 | 0.825 | 0.506 | 0.24 | 0.164 | 0.463 | 0.407 | 0.301 | 0.148 | 0.103
